In brackets after ≈: the same amount, converted by molar mass. Residues, ends and D or L forms follow the SMILES beside them. No end group written: not given here.
Legend:
[1] = test system: Escherichia coli, ATCC 25922; assay type: cell-based; conditions: non-clinical isolate; 37° C.; 3×10^6 cells per ml
[2] = test system: Pseudomonas aeruginosa ATCC 27853; assay type: cell-based; conditions: non-clinical isolate; 37° C.; 3×10^6 cells per ml
Rhodotorula sp. = conditions: 48 h
How it was run: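 Broth microdilution in half-strength potato dextrose broth, final 2×10^5 spores per ml, peptides in two-fold dilutions from 50 μM to 0.1 μM final. Incubated in the dark without shaking at 25° C. (37° C. for C. albicans) for 48 h; MIC is lowest concentration giving 50% inhibition of visible growth, scored microscopically.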

[3] = test system: Listonella (Vibrio) anguillarum, serotype O2 (FT 1801); assay type: cell-based
How it was run: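 Peptide fractions were incubated with actively growing bacteria in Mueller Hinton medium at a starting concentration of 3×10^4 cells per ml. Growth was monitored continuously in a Bioscreen C reader; polymyxin B served as reference.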

in vitro = assay type: cell-based, human; conditions: human
Protocol: The toxicity of test peptides on THP-1 cells was measured using the MIT method (Mosmann, 1983), with minor modifications. To induce monocyte-macrophage differentiation, THP-1 cells were cultured in 96-well culture plates (10^6 cells/well) in a volume of 100 μl RPMI 1640 medium, containing 50 ng/ml PMA (which is known to induce the maturation of monocytes) and incubated in a humidified atmosphere of 5% CO2 at 37° C. for 48 hours. The medium was then removed and the cells were washed with PBS, added 100 μl fresh medium (without PMA) and incubated for another 24 hours. Medium was removed and the adherent macrophages were treated with 100 μl of peptide solution (concentrations ranging from 0 to 800 μg/ml), diluted in RPMI-1640 assay medium without FBS. After incubation at 37° C. for 1 hour, the cells were added LPS (0.1 μg/ml) and further incubated for 4 hours. Cells treated with Triton X-100 (1%) were used as positive control (100% killing) whereas cells plus medium only were used as negative control. Following the incubation period, 10 μl MTT (5 mg/ml) dissolved in phosphate-buffered saline (PBS) was added to each well, and the plate was further incubated for 2 hours. A volume of 70 μl of the supernatant was then removed and 100 μl acid alcohol (0.04 M HCl in isopropanol) added to each well to dissolve the dark blue crystals. The plate was placed on a shaker for 1 hour at room temperature and read spectrophotometrically at 595 nm in a microtiter plate reader (DTX880 Multimode Detector, Beckman Coulter). Cell survival (%) was then determined from the ΔA595 nm relative to negative control (100% living cells) and expressed as 50% inhibitory concentration (IC50). The IC50 values were estimated from the dose-response curves, which were obtained by averaging at least 3 parallel experiments.

| Molecule | Minimal inhibitory concentration, Escherichia coli, ATCC 25922 [1] | Minimal inhibitory concentration, Pseudomonas aeruginosa ATCC 27853 [2] | Minimal inhibitory concentration (MIC), Rhodotorula sp. (Rhodotorula sp.) | Minimal inhibitory concentration, L. anguillarum [3] | CC50 at 5 h (in vitro) |
| --- | --- | --- | --- | --- | --- |
| CC[C@H](C)[C@H](NC(=O)CNC(=O)[C@H](CO)NC(=O)[C@H](CCCCN)NC(=O)[C@@H](NC(=O)[C@H](C)NC(=O)[C@H](Cc1c[nH]cn1)NC(=O)[C@H](CO)NC(=O)[C@@H](NC(=O)[C@H](CCCCN)NC(=O)[C@H](Cc1c[nH]cn1)NC(=O)[C@H](Cc1ccccc1)NC(=O)[C@@H](NC(=O)[C@H](CCCCN)NC(=O)[C@H](CCCCN)NC(=O)[C@H](Cc1ccccc1)NC(=O)C(Cc1c[nH]c2ccc(Br)cc12)NC(=O)CN)[C@@H](C)O)C(C)C)C(C)C)C(=O)N[C@@H](Cc1c[nH]cn1)C(=O)N[C@@H](C)C(=O)NCC(=O)N[C@@H](CCC(N)=O)C(=O)N[C@@H](CCCNC(=N)N)C(=O)NCC(=O)N[C@@H](CS)C(=O)N[C@@H](CO)C(=O)N[C@@H](C)C(=O)N[C@@H](CC(C)C)C(=O)NCC(=O)N[C@@H](Cc1ccccc1)C(=O)O (stereo partly shown) [P17 HC-Br] (HELM PEPTIDE1{G.[O=C(C(Cc1c[nH]c2ccc(Br)cc12)N[*:1])[*:2]].F.K.K.T.F.H.K.V.S.H.A.V.K.S.G.I.H.A.G.Q.R.G.C.S.A.L.G.F}$$$$V2.0) | 6.25 µM (≈ 20.8 µg/mL) | 6.25 µM (≈ 20.8 µg/mL) | 3.12 µM (≈ 10.4 µg/mL) | 0.78 µM (≈ 2.59 µg/mL) | 51.1 µM |
| GWFKKTFHKVSHAVKSGIHAGQRGCSALGF [P17 HC] | 6.25 µM | 6.25 µM | 3.12 µM | 0.78 µM | 38 µM |

— patent US20100093642A1, “NOVEL POLYPEPTIDES” (priority 2006, published 2010)
